Results: patent US20030087237A1, “Low-temperature cycle extension of DNA with high polymerization specificity” (priority 2001, published 2003)
“Also recorded” adds a separate entry of the source. Like-named read-outs stand apart in the source and are kept apart here.

B1: Bst-I: wild type, natural form of Bacillus stearothermophilus DNA polymerase (protein, UniProt P52026 1-876, looked up)
DNA polymerase I: MKNKLVLIDGNSVAYRAFFALPLLHNDKGIHTNAVYGFTMMLNKILAEEQPTHILVAFDAGKTTFRHETFQDYKGGRQQTPPELSEQFPLLRELLKAYRIPAYELDHYEADDIIGTMAARAEREGFAVKVISGDRDLTQLASPQVTVEITKKGITDIESYTPETVVEKYGLTPEQIVDLKGLMGDKSDNIPGVPGIGEKTAVKLLKQFGTVENVLASIDEIKGEKLKENLRQYRDLALLSKQLAAICRDAPVELTLDDIVYKGEDREKVVALFQELGFQSFLDKMAVQTDEGEKPLAGMDFAIADSVTDEMLADKAALVVEVVGDNYHHAPIVGIALANERGRFFLRPETALADPKFLAWLGDETKKKTMFDSKRAAVALKWKGIELRGVVFDLLLAAYLLDPAQAAGDVAAVAKMHQYEAVRSDEAVYGKGAKRTVPDEPTLAEHLVRKAAAIWALEEPLMDELRRNEQDRLLTELEQPLAGILANMEFTGVKVDTKRLEQMGAELTEQLQAVERRIYELAGQEFNINSPKQLGTVLFDKLQLPVLKKTKTGYSTSADVLEKLAPHHEIVEHILHYRQLGKLQSTYIEGLLKVVHPVTGKVHTMFNQALTQTGRLSSVEPNLQNIPIRLEEGRKIRQAFVPSEPDWLIFAADYSQIELRVLAHIAEDDNLIEAFRRGLDIHTKTAMDIFHVSEEDVTANMRRQAKAVNFGIVYGISDYGLAQNLNITRKEAAEFIERYFASFPGVKQYMDNIVQEAKQKGYVTTLLHRRRYLPDITSRNFNVRSFAERTAMNTPIQGSAADIIKKAMIDLSVRLREERLQARLLLQVHDELILEAPKEEIERLCRLVPEVMEQAVTLRVPLKVDYHYGPTWYDAK

Tests used:
Bst-II DNA polymerase [1] = biological target: T1, Bst-II DNA polymerase (Geobacillus stearothermophilus, UniProt P52026, A297E/A304V/A338V/A377V/A406D/A433V/A505S/D300E/D309E/D325E/D402N/D540E/D696E/D751E/E459Q/E464D/E476K/E631P/E632L/E667D/F710Y/G298E/G324E/G362A/G483A/G678D/H329D/H417K/H573N/H596R/H691Q/K356Q/K494N/L346M/L461F/L630T/N487E/P355S/P441Q/P480A/Q479H/Q512R/R341H/R467N/R472Q/R516Q/R676Q/R816K/R819Q/R846E/S306V/S373A/S812A/T369S/T436S/T508A/T536V/V307I/V323M/V391A/V410I/V437L/V514I/V537I/V598D/V619A/V692L/V813A); format: biochemical, Bacillus stearothermophilus; settings: for effect on 5′-3′ polymerization activity of the polymerase: 65° C.
T1 construct: made in house
Description: The remaining activity of Bst-II DNA polymerase (produced according to U.S. Pat. No. 6,165,765) in the presence of different concentrations of Glycerol was determined as follows:
(a) In a series of numbered 0.5 ml microcentrifuge tubes were added the following:
The mixtures above were firstly evaporated by Speed-Vacuum, then varying final concentrations of glycerol in each reaction mixture were achieved by adding an appropriate amount of a glycerol stock solution to the above microcentrifuge tubes as indicated below.
(b) All these tubes were incubated at 65° C. for 30 minutes. Then each of the reaction mixtures was pipetted onto a DE-81 filter. After all of the fluid has evaporated, the amount of radioactivity on each filter was measured with scintillation and recorded as X1. Thereafter, the filters were washed three times with 0.3 M Na2HPO4 solution at room temperature, 10 minutes each times, dried at room temperature and then the amount of radioactivity on each filter was measured again and recorded as X2. Incorporation ratio=X2/X1. [formula]

Bst-II DNA polymerase [2] = biological target: T1, Bst-II DNA polymerase; assay: Low-temperature cycle primer extension with Bst-II at different glycerol concentrations (agarose gel); format: biochemical, Bacillus stearothermophilus
Description: Bst-II DNA polymerase was used for the study. […]
(§1) The reaction products were run on a 1% agarose gel for electrophoresis and stained by ethidium bromide.
Four different sets of templates and primers were selected representing varying lengths of the DNA segments to be amplified:
The low temperature cycle extension was carried out as follows:
(a) To a 0.2 ml microcentrifuge tube were added.
(b) The mixture above was firstly evaporated by Speed-Vacuum, then the following were added to each microcentrifuge tube containing the evaporated reagents with different sets of template and primers to achieve a final concentration of 35% glycerol and 15% glycerol in the reaction mixture, respectively.
(c) All the microcentrifuge tubes with the reaction mixture were subjected to low temperature cycling as follows:
The reaction products were run on a 1% agarose gel for electrophoresis and stained by ethidium bromide. The reaction products from the mixture containing 35% glycerol were loaded in lane 1, and the reaction products from the mixture containing 15% glycerol were loaded in lane 2.

rice genome BAC B414f7 = assay: Low-temperature cycle extension of 17 mer and 30 mer primers with different DNA polymerases (agarose gel); format: biochemical; settings: Bst system, 15% glycerol, 70° C./37° C./50° C., 35 cycles
Description: The polymerases used were Bst-I (wild type produced according to U.S. Pat. No. 5,834,254), Bst-II, and Bca (TaKaRa Co.). The Klenow fragment (Sigma Chemical Co.) was used as a thermolabile DNA polymerase for comparison (Iakobashvili and Lapidot).
The template used was rice genome BAC B414f7.
The two pairs of primers used were: […]
The following reaction system (referred to hereafter as the Bst system) was used.
(a) In a 0.2 ml microcentrifuge tube were added:
(b) The microcentrifuge tubes were subjected to the following temperature cycling.
as §1
In addition, the method of using a reaction mixture containing 4.5 M proline and 17% glycerol in Tris-HCl buffer as recommended by Iakobashvili and Lapidot was also adopted for the reactions with Klenow fragment as the DNA polymerase (hereafter referred to as the Iakobashvili and Lapidot system). The reaction products were also run parallel to those obtained with the Bst system, and illustrated as follows in FIG. 4.

[3] = higher concentrations (greater than about 35%)
[4] = low concentration, not exceeding / up to about 20% (v/v)

T1 sequence (P52026 other isoform, or with tags, fused parts or gaps with the stated changes): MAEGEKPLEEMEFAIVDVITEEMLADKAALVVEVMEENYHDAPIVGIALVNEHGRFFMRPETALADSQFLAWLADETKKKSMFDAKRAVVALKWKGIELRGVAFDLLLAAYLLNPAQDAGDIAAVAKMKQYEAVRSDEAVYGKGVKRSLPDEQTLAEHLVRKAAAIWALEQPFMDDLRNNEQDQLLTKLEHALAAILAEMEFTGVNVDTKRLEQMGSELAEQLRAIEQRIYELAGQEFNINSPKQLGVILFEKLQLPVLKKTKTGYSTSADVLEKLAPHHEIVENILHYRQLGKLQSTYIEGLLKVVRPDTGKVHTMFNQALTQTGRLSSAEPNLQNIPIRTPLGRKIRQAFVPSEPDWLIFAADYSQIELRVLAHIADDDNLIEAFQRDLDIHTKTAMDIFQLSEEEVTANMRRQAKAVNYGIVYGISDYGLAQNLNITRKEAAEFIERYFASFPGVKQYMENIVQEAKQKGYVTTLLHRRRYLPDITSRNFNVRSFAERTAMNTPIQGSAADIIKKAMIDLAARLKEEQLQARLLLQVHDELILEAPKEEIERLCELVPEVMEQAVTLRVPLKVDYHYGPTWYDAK

Molecule | effect on 5′-3′ polymerization activity of the polymerase (Bst-II DNA polymerase [1]; [3]) | effect on 5′-3′ polymerization activity of the polymerase (Bst-II DNA polymerase [1]; [4]) | loss of original polymerization activity (Bst-II DNA polymerase [1]; glycerol 40% (v/v)) | amplification products on gel (Bst-II DNA polymerase [2]; 15% glycerol, target products 250 bp to 2 Kb) | amplification products on gel (Bst-II DNA polymerase [2]; 35% glycerol, target product 1 Kb and 2 Kb) | amplification products on gel (Bst-II DNA polymerase [2]; 35% glycerol, target product 250 bp or 400 bp) | amplification products on gel (Bst-II DNA polymerase [2]; 40% glycerol, template pBluescript(+), low or high template concentration, 70° C./45° C., 35 cycles) | amplification product from 17 mer and 30 mer primer extension (rice genome BAC B414f7)
OCCO [ethylene glycol] | detrimental inhibitory effect | increase the sequence-specific DNA polymerization activity | – | – | – | – | – | –
OCC(O)CO [glycerol] | detrimental inhibitory effect; also recorded: invariably suppressed this enzymatic activity | increased the enzymatic activity; also recorded: increase the sequence-specific DNA polymerization activity; also recorded: increased the 5′-3′ polymerization activity | ⅔ | specific amplification products | both specific and non-specific amplification products | no amplification products produced at all | non-specific amplification products of varying sizes | –
B1 | – | – | – | – | – | – | – | generated specific amplification products
